# According to US9663478B2, “Benzotriazine oxides as drugs targeting Mycobacterium tuberculosis” (priority 2011, dated 2017):
# Assays:
# Vero cells = conditions: African green monkey, 72 h
# Mtb H37Rv [1] = assay: TB MIC - SRI, resazurin-based microplate assay; assay type: cell-based, Mycobacterium tuberculosis; conditions: Mycobacterium tuberculosis, H37RV
# Mtb H37Rv [2] = assay: TB MIC - ITR (UIC), Institute for Tuberculosis Research; assay type: cell-based, Mycobacterium tuberculosis; conditions: for TB MIC - UIC: Tables P1, P2; for MIC: Mycobacterium tuberculosis, H37RV, Tables 1-4, read-out: TB MIC - ITR
# NRP Mtb H37Rv cells = assay: Low-oxygen recovery assay (LORA) MIC; assay type: cell-based, Mycobacterium tuberculosis; conditions: for LORA MIC: Tables P1, P2, non-replicating M. tuberculosis; for MIC: Mycobacterium tuberculosis, H37RV, NRP Mtb, Tables 1-4 and text, read-out: LORA MIC - ITR
# [3] = Tables P1-P3, read-out: TB MIC - SRI
# [4] = Tables 1-4 and text, read-out: TB MIC - SRI
# [5] = read-out: Activity against H37Rv, Table P4
# [6] = read-out: TB MIC - SRI, Tables P1-P3
SMILES,VERO Tox-SRI (Vero cells),Vero Tox CC50 (Vero cells) [µg/mL],MIC (Mtb H37Rv [1]; [4]) [µg/mL],MIC (NRP Mtb H37Rv cells) [µg/mL],MIC (Mtb H37Rv [2]) [µg/mL],other results
[O-][n+]1nc(N[C@@H]2C[C@H]3CC[C@@H]2C3)[n+]([O-])c2ccc(F)cc21 (racemic) [SRI-012280],<2.5,,,,,MIC (Mtb H37Rv [1]; [3]): 0.312 µg/mL; TB MIC - UIC (Mtb H37Rv [2]): < 0.125 µg/mL; LORA MIC (NRP Mtb H37Rv cells): 0.21 µg/mL
COCCNC(=O)c1ccc2c(c1)[n+]([O-])c(O)c(C#N)[n+]2[O-] [Cmpd 4],,>16,> 20,> 32,,
COCCNC(=O)c1ccc2c(c1)[n+]([O-])c(C(C)=O)c(C)[n+]2[O-] [Cmpd 5],,>16,10,> 32,27,
Cc1c(N2CCCC2)[n+]([O-])c2ccccc2[n+]1[O-] [Cmpd 6],,>16,> 10,> 32,,
"CC(C)(C)Nc1n[n+]([O-])c2ccccc2[n+]1[O-] [Compound 8c, 3-(tert-butylamino)benzo[e][1,2,4]triazine 1,4-dioxide]",,8.0,1.2,0.82,1.9,"MIC (Mtb H37Rv [1]; Table 5, read-out: MIC, H37Rv): 2.5 µg/mL"
"[O-][n+]1nc(NC2CCCC2)[n+]([O-])c2ccccc21 [Compound 8e, 3-(cyclopentylamino)benzo[e][1,2,4]triazine 1,4-dioxide]",,10,2.5,0.68,3.6,
"CCCC(C)Nc1n[n+]([O-])c2ccccc2[n+]1[O-] (stereo not shown) [Compound 8h, 3-(pentan-2-ylamino)benzo[e][1,2,4]triazine 1,4-dioxide]",,26,5,0.99,1.9,
"C[C@@H](Nc1n[n+]([O-])c2ccccc2[n+]1[O-])C1CCCCC1 [Compound 8k, (R)-3-((1-cyclohexylethyl)amino)benzo[e][1,2,4]triazine 1,4-dioxide]",,8.9,1.2,0.36,0.92,
"[O-][n+]1nc(N[C@@H]2C[C@H]3CC[C@@H]2C3)[n+]([O-])c2ccccc21 [Compound 8m, 3-((1R,2R,4S)-bicyclo[2.2.1]heptan-2-ylamino)benzo[e][1,2,4]triazine 1,4-dioxide]",,3.4,0.62,0.42,0.6,
"CCNc1n[n+]([O-])c2cc(C)c(OC)cc2[n+]1[O-] [Compound 15ga, 3-(ethylamino)-6-methoxy-7-methylbenzo[e][1,2,4]triazine 1,4-dioxide]",,>100,2.5,,3.5,"MIC (Mtb H37Rv [1]; Table 5, read-out: MIC, H37Rv): 1.2 µg/mL"
"CN(Cc1ccccc1)c1n[n+]([O-])c2cc3c(cc2[n+]1[O-])CCC3 [Compound 20t, 3-(benzyl(methyl)amino)-7,8-dihydro-6H-indeno[5,6-e][1,2,4]triazine 1,4-dioxide]",,17,,0.41,,"MIC (Mtb H37Rv [1]; Table 5, read-out: MIC, H37Rv): 0.31 µg/mL"
CCNc1n[n+]([O-])c2cc(OC)ccc2[n+]1[O-] [SRI-012285],15.8,,,,,TB MIC - UIC (Mtb H37Rv [2]): 15.1 µg/mL; LORA MIC (NRP Mtb H37Rv cells): 16.2 µg/mL
[O-][n+]1nc(N[C@@H]2C[C@H]3CC[C@@H]2C3)[n+]([O-])c2ccc(Br)cc21 [SRI-012467],0.81,,,,,MIC (Mtb H37Rv [1]; [3]): 0.312 µg/mL
Cc1cccc2c1[n+]([O-])c(NC1CCCC1)n[n+]2[O-] [SRI-012473],3.7,,,,,MIC (Mtb H37Rv [1]; [3]): 0.312 µg/mL
CCNc1n[n+]([O-])c2cc3c(cc2[n+]1[O-])CCCC3 [SRI-012496],21.78,,,,,MIC (Mtb H37Rv [1]; [5]): 1.25 µg/mL; MIC (Mtb H37Rv [1]; [6]): 1.25 µg/mL
[O-][n+]1nc(NC2CCC2)[n+]([O-])c2cc3c(cc21)CCCC3 [SRI-012497],50,,,,,MIC (Mtb H37Rv [1]; [5]): 1.25 µg/mL; MIC (Mtb H37Rv [1]; [6]): 1.25 µg/mL
[O-][n+]1nc(NC2CC3CCC2C3)[n+]([O-])c2cc3c(cc21)CCCC3 (stereo not shown) [SRI-012498],50,,,,,MIC (Mtb H37Rv [1]; [5]): 1.25 µg/mL; MIC (Mtb H37Rv [1]; [6]): 1.25 µg/mL
